The values below come from patent US5231101A, “Benzo[5,6]cyclohepta[1,2-B]pyridine derivatives and antiallergic agents comprising same” (SS Pharmaceutical Co., Ltd., priority 1991, dated 1993).

The nature of one series: Acute toxicity. The following applies: mouse, in vivo; oral, ICR mice. The source says: The invention compound (Compound No. 1) was orally administered to ICR mice.
Series [1] deals with isolated guinea pig ileum. The series is described as follows: Antihistamine selectivity determined from experiments (1) and (2). As to conditions: determined from results of experiments (1) antihistaminergic and (2) antiacetylcholinergic action. The class given is cell-based. Here is the method:
(§1) After a Hartley male guinea pig was sacrificed under ether anesthesia and exsanguination, the ileum was immediately isolated and a preparation was prepared. The preparation was suspended in a 20 ml Magnus bath containing 32° C. Tyrode solution (95% O2 -5% CO2 saturation) and was placed under resting tension of 1 g. The isometrical changes of the muscular tension produced were recorded on the polygraph through the force displacement transducer.
(3) Antihistamine selectivity
From the results of the above experiments (1) and (2), the antihistamine selectivity was determined in accordance with the following formula. [formula]

The test system of series [2] is isolated guinea pig ileum. The series is described as follows: Antiacetylcholinergic action on the isolated guinea pig ileum (acetylcholine-induced contraction). The class given is cell-based, guinea pig (Hartley male). As to conditions: Cavia porcellus. As for the experimental part:
as §1
(2) Antiacetylcholinergic action on the isolated guinea pig ileum

Another series concerns ddy male mice. The series is described as follows: Effects on sleeping time (pentobarbital-induced). The class given is in vivo, mouse (ddy male). The following applies: 10 mg/kg oral, 1 hour before pentobarbital (50 mg/kg i.p.), n=10, control 46.6 ± 3.8, ** p < 0.01 relative to the control (marked for loratadine only). Here is the method: (5) Effects on sleeping time Animals used in groups were ddy male mice, each group consisting of ten mice. After fasted for 24 hours, they were orally administered with a test compound. Upon an elapsed time of 1 hour after the oral administration, pentobarbital (50 mg/kg) was intraperitoneally administered and the sleeping time was measured. Statistical evaluation was performed by one-way analysis of variance, followed by the Turkey test for multiple comparison.

The subject of series [3] is histamine-induced dermovascular penetration increase. Nature of the series: Effect on histamine-induced dermovascular penetration increase. As to conditions: Cavia porcellus, 0.5 h; oral, 60 minutes before intradermal histamine (1 μg); blue spot area at 30 min; guinea pig; read-out: ID50 (the source's name). The class given is in vivo, guinea pig (5-week old). As for the experimental part: (4) Effect on histamine-induced dermovascular penetration increase In a shaved dorsal skin of a guinea pig (5-week old), 0.1 ml (1 μg) of histamine was intradermally injected. […] Thirty minutes later, the animal was sacrificed under exsanguination and was evaluated by square of the shortest and the longest diameters of the blue spot (histamine-injected site). Each test compound was orally administered 60 minutes before the injection of histamine.

Series [4] relates to isolated guinea pig ileum. The series is described as follows: Antihistaminergic action on the isolated guinea pig ileum (histamine-induced contraction). As to conditions: Cavia porcellus. The class given is cell-based, guinea pig (Hartley male). As for the experimental part: (1) Antihistaminergic action on the isolated guinea pig ileum
as §1

On to `CN1CCC(=C2c3ccc(C#N)cc3CCc3cccnc32)CC1` [Compound No. 1, 8-Cyano-11-(1-methyl-4-piperidylidene)-6,11-dihydro-5H-benzo[5,6]-cyclohepta[1,2-b]pyridine], for which, in the series “Acute toxicity”, the LD50 came out at 657 mg/kg. Also, the Antihistamic selectivity in series [1] is 3212. For the same compound, the IC50 in series [2] (vs acetylcholine (3×10^-5 M), isolated guinea pig ileum, read-out: IC50) worked out at 48.5 µM; in series [4] (vs histamine (10^-5 M)-induced contraction, isolated guinea pig ileum, 32° C. Tyrode solution, read-out: IC50) it was 0.0151 µM. This compound also yielded a Sleeping time in the series on ddy male mice of 62.9 ± 5.8 min. Moreover, in series [3], the ED50 was 0.012 mg/kg.
Consider `CCOC(=O)N1CCC(=C2c3ccc(Cl)cc3CCc3cccnc32)CC1` [Loratadine], for which the Antihistamic selectivity in series [1] is listed as 190. The IC50 worked out at 23.4 µM in series [2] and 0.123 µM in series [4]. The compound further showed a Sleeping time with ddy male mice of 75.7 ± 5.8 min. The ED50 in series [3] stood at 0.534 mg/kg.
For `CC(C)(C)c1ccc(C(O)CCCN2CCC(C(O)(c3ccccc3)c3ccccc3)CC2)cc1` (stereo not drawn) [Terfenadine], the ED50 in series [3] was 3.34 mg/kg.

One may read the LD50 as the dose expected to kill half of the subjects tested. The term IC50 denotes the concentration at which inhibition is half-maximal.
